In patent US20110237549A1, “MODULATORS OF RNA RIBOSWITCHES” (MEMORIAL SLOAN KETTERING CANCER CENTER, priority 2008, published 2011):

Columns and labels:
[1] = test system: 265-nucleotide full-length T. maritima lysine riboswitch; assay: primer extension assay (reverse transcriptase pausing at A169); type: biochemical, Thermotoga maritima
Excerpt: FIG. 39. Interactions of lysine and its analogs with the T. maritima lysine riboswitch studied by primer extension. a and b, Representative gels of riboswitch titration by lysine (a) and AEC (b). Reverse transcriptase (RT) pauses three nucleotides prior to the j unction at A169 in the context of the full-length riboswitch if the riboswitch-binding ligand is present in the reaction mixture. c, Representative titration experiments used for calculations of the ligand concentration (FIG. 4c) at which RT pausing is half-maximally attained. The experimental data points for lysine and AEC are from panels (a) and (b). The data were fitted to equation (1), which is based on the equation describing a bimolecular equilibrium, by the nonlinear least squares analysis. In the equation
θ is the fraction of RT pausing, No and Lo are RNA and ligand concentrations, respectively, and P50 is the apparent ligand concentration at which RT pausing is half-maximally attained. The P50 value for the lysine-induced RT pausing 5.50±0.53/−1M (mean±s.d.) (n=2) is similar to the Kd value 4.03±0.34/−1M (mean±s.d.) (n=2) determined by the equilibrium dialysis assay. The relative differences between the P50 values for lysine and its analogs are in overall agreement with the relative differences obtained from the Kd values for lysine and its analogs determined for the B. subtilis lysine riboswitch in ref. 5.
Primer extension experiments were performed using 265-nucleotide full-length riboswitch. The 32P-labelled 13-mer DNA oligonucleotide (100,000 c.p.m.), complementary to nucleotides 253-265 of RNA, was annealed to the 39 end of RNA (final RNA concentration […] in the assay). Primer extension was conducted in […] volume with 40 U of moloney murine leukaemia virus reverse transcriptase in 50 mM Na-HEPES, pH 7.9, 2 mM MgCl2, and variable concentrations of NaCl and KCl (FIG. 4), with or without a tenfold excess of lysine over RNA. After 30 min incubation at 37° C., the reactions were precipitated with ethanol, dissolved in loading buffer and analysed by 10% PAGE. Efficiency of lysine-induced pausing of reverse transcriptase at nucleotide A169 was quantified using FLA-7000 PhosphorImager and Image Gauge software (Fujifilm). Band intensities from independent experiments were averaged after gel-loading correction, background subtraction and normalization. The primer extension assay in the presence of lysine analogues was performed in 50 mM Na-HEPES, pH 7.9, 2 mM MgCl2, 50 mM KCl, and lysine analogues in the range 1028-1022 M. The data were fitted using a bimolecular equilibrium equation (Supplementary FIG. 12) and the resulting P50 values are reported in FIG. 4c. Reverse transcriptase sequencing reactions were run in parallel.

[2] = test system: 112-nucleotide F. nucleatum FMN riboswitch; assay: fluorescent binding assay with the 112-nucleotide F. nucleatum FMN riboswitch; settings: for Kd: read-out: dissociation constants (mean s.d.), 112-nucleotide riboswitch, 2 mM MgCl2 and 100 mM KCl
[3] = test system: mRNA that contains the FMN riboswitch; settings: used at a 17-fold higher concentration than FMN; cited from earlier work
[4] = test system: 143-nucleotide B. subtilis FMN riboswitch; assay: fluorescent binding assay with the 143-nucleotide B. subtilis FMN riboswitch; settings: Bacillus subtilis riboswitch
Procedure: FIG. 9. The metabolite-sensing domain of the B. subtilis FMN riboswitch. a, The sequence of the 143-nucleotide fragment of B. subtilis riboswitch 5 is presented as a secondary structure schematic, which is based on the consensus secondary structure of the FMN riboswitches with small corrections from the three-dimensional structure of the F nucleatum riboswitch. b, Binding of FMN and its analogs to the 143-nucleotide B. subtilis FMN riboswitch. All measurements were performed using fluorescent assay.

[5] = test system: T. maritima lysine riboswitch; assay: equilibrium dialysis, T. maritima lysine riboswitch; type: binding, Thermotoga maritima
Procedure: (§1) The assay was performed as described in Sudarsan, et al., An mRNA structure in bacteria that controls gene expression by binding lysine, Genes Dev. 17:2688-2697 (2003) using 5 kDa DispoEquilibrium DIALYZERS (Harvard Apparatus). In brief, […] RNA (from 0.001 to 20 mM) in the in-line probing buffer was placed in chamber A of the dialyser and equilibrated for 16 h at room temperature against chamber B containing […] 3H-labelled lysine (1 nM; 6,000 c.p.m.) in the same buffer. The amount of bound lysine was calculated by subtracting the radioactivity counts of chamber B from chamber A. The data were fitted using a bimolecular equilibrium equation, assuming that the free lysine concentration is negligible.

[6] = test system: B. subtilis lysine riboswitch; assay: equilibrium dialysis, B. subtilis lysine riboswitch; type: binding; settings: Bacillus subtilis riboswitch
Procedure: as §1

[7] = target: 220-nucleotide full-length F. nucleatum FMN riboswitch; assay: fluorescent binding assay with the 220-nucleotide full-length F. nucleatum impX FMN riboswitch; design: species or system Fusobacterium nucleatum; settings: 220-nucleotide RNA; read-out: Kd (mean±s.d.)

Q: For `N=C(N)NCCCC[C@H](N)C(=O)O` [L-homoarginine], which “binding to the riboswitch relative to lysine in primer extension” value [1] is on record?
A: weaker interactions than lysine

Q: Which “effect of additional removal of the ribityl moiety on binding affinity” value ([2]; compared with riboflavin) does the source give for `Cc1cc2nc3c(=O)[nH]c(=O)nc-3n(C)c2cc1C` [lumiflavin] here?
A: reduces binding affinity to only a very small extent

Q: What about the Kd [2] of the same molecule?
A: 59 µM

Q: With `Cc1cc2nc3c(=O)[nH]c(=O)nc-3n(C[C@H](O)[C@H](O)[C@H](O)COP(=O)(O)OP(=O)(O)OC[C@H]3O[C@@H](n4cnc5c(N)ncnc54)[C@H](O)[C@@H]3O)c2cc1C` [FAD, flavin adenine dinucleotide] as the molecule, how does the “inhibition of transcription in vitro” value [3] read?
A: inhibited

Q: For `NCCSC[C@H](N)C(=O)O` [AEC, S-(2-aminoethyl)-L-cysteine], which “binding to the riboswitch relative to lysine in primer extension” value [1] is on record?
A: weaker binding

Q: Which “binding to the riboswitch relative to lysine in primer extension” value [1] does the source give for `CC(=N)NCCCC[C@H](N)C(=O)O` [N6-1-iminoethyl-L-lysine] here?
A: weaker interactions than lysine

Q: Which “binding to the riboswitch relative to lysine in primer extension” value [1] does the source give for `NCCOC[C@H](N)C(=O)O` [L-4-oxalysine] here?
A: weaker binding

Q: With `Cc1cc2nc3c(=O)[nH]c(=O)nc-3n(C[C@H](O)[C@H](O)[C@H](O)CO)c2cc1C` [riboflavin] as the molecule, how does the “decrease of binding affinity compared with binding of FMN” value [4] read?
A: about 1,000 fold

Q: What about the “decrease of binding affinity compared with binding of FMN” value ([2]; F. nucleatum riboswitch) of the same molecule?
A: about 1,000 fold

Q: And the Kd [2]?
A: 39.8 µM

Q: What does the source list for `NCCCC[C@H](N)C(=O)O` [lysine, L-lysine]?
A: lysine binding affinity when K+ was omitted or replaced by Na+ [5]: significantly decreased; lysine binding affinity when K+ was omitted or replaced by Na+ [6]: significantly decreased; decrease of reverse transcriptase pause after replacement of K+ by Na+ ([1]; in the presence of lysine): 33 fold

Q: Which results are given for `Cc1cc2nc3c(=O)[nH]c(=O)nc-3n(C[C@H](O)[C@H](O)[C@H](O)COP(=O)(O)O)c2cc1C` [FMN, flavin mononucleotide]?
A: Kd [7]: 0.134 ± 0.0139 µM; binding to the riboswitch in the presence of cobalt hexamine ([2]; cobalt hexamine in place of Mg2+): equally well; reduction of binding affinity in the presence of iridium hexamine ([2]; iridium hexamine in place of Mg2+): about 15 fold
